pIC50: −log10 of the molar value.
The molecules below were run against Human PKK (Homo sapiens (Human), UniProt P03952) (assay: Inhibition of PKK using an endpoint assay (human PKK)). Conditions: 1 h at rt, 0.10 μM H-Pro-Phe-Arg-AMC.
Type: biochemical
Procedure: The ability of compounds of formula (I) to inhibit plasma kallikrein (PKK), Factor XIIa (FXIIa), Factor XIa (FXIa), Factor Xa (FXa), Factor IIa (alpha-thrombin; FIIa), plasmin, trypsin, tissue kallikrein 1 (TK1), Factor Vila (FVIIa), or FVIIa complexed with Tissue Factor, phospholipids and CaCl2) (FVIIa/TF/PL/CaCl2) was determined using the following biochemical assays in assay buffer (100 mM Tris, 150 mM NaCL, adjusted to a pH of 7.8 with HCl, and containing 0.1% (w/v) BSA and 0.05% (v/v) Tween20) in the presence of 1% (v/v) DMSO:
Subsequently, PPACK II (Calbiochem) was added as a stop solution to achieve a final concentration of 1 μM and fluorescence was measured using an Envision Reader (PerkinElmer) with the wavelength excitation setting of 355 nm and the wavelength emission setting of 460 nm. The number of the compound corresponds to the number of the Example in the experimental section.

Sequence of Human PKK (P03952 391-638): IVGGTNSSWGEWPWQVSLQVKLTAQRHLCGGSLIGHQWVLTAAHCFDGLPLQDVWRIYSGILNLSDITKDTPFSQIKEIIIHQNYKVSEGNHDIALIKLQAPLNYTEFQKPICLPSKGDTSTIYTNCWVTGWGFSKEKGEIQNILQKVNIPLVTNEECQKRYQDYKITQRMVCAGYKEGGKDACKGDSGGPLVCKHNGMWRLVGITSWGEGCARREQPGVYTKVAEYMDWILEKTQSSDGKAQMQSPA
Sequence of Human PKK (P03952 20-390 partner): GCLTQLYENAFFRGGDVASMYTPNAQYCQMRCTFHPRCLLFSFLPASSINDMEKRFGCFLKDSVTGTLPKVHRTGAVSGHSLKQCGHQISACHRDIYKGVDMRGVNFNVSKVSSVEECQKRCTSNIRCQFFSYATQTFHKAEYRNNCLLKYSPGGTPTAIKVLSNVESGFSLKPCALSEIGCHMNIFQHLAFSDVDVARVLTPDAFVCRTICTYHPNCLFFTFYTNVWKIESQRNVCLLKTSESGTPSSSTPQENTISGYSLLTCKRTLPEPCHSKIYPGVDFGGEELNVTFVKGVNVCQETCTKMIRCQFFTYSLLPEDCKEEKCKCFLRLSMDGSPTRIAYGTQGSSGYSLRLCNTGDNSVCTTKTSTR

| Structure (SMILES) | pIC50 |
| --- | --- |
| Cc1nc(N2CC3(CC3)C2)ncc1Cn1cc(C(=O)NCc2c(-n3cnnn3)ccc(Cl)c2F)cn1 [Example 40] | 9.30 |
| Cc1nc(N2CC3CC3C2)ncc1Cn1cc(C(=O)NCc2c(-n3cnnn3)ccc(Cl)c2F)c(C)n1 (stereo not shown) [Example 30] | 9.10 |
| Cc1nc(N2CC3CC3C2)ccc1Cn1cc(C(=O)NCc2c(-n3cnnn3)ccc(Cl)c2F)c(Cl)n1 (stereo not shown) [Example 7] | 9.10 |
| Cc1nc(N2CC3C(C2)C3(F)F)ccc1Cn1cc(C(=O)NCc2cc(Cl)ccc2-n2cnnn2)c2cncnc21 (stereo not shown) [Example 8] | 9.00 |
| Cc1nc(N2CC3CC3C2)ncc1Cn1cc(C(=O)NCc2c(-n3cnnn3)ccc(Cl)c2F)c2cncnc21 (stereo not shown) [Example 26] | 9.05 |
| COC1C2CC1CN(c1ccc(Cn3cc(C(=O)NCc4cc(Cl)ccc4-n4cnnn4)cn3)c(C)n1)C2 (stereo not shown) [Example 84, N-{[5-chloro-2-(1H-1,2,3,4-tetrazol-1-yl)phenyl]methyl}-1-[(6-{6-methoxy-3-azabicyclo[3.1.1]heptan-3-yl}-2-methylpyridin-3-yl)methyl]-1H-pyrazole-4-carboxamide] | 8.40 |
| Cc1nc(N2CC3(CC3)C2)ccc1Cn1cc(C(=O)NCc2cc(Cl)ccc2-n2cnnn2)c(C)n1 [Example 29] | 8.70 |
| Cc1nc(N2CCC3(CCCO3)C2)ccc1Cn1cc(C(=O)NCc2cc(Cl)ccc2-n2cnnn2)cn1 (stereo not shown) [Example 76, N-{[5-chloro-2-(1H-1,2,3,4-tetrazol-1-yl)phenyl]methyl}-1-[(2-methyl-6-{1-oxa-7-azaspiro[4.4]nonan-7-yl}pyridin-3-yl)methyl]-1H-pyrazole-4-carboxamide] | 8.52 |
| COCc1nn(Cc2cnc(N3CC4(CC4)C3)nc2C)cc1C(=O)NCc1cc(Cl)ccc1-n1cnnn1 [Example 41] | 8.22 |
| Cc1nc(N2CC3C(C2)C3(F)F)ncc1Cn1cc(C(=O)NCc2c(-n3cnnn3)ccc(Cl)c2F)c2cncnc21 (stereo not shown) [Example 23] | 9.00 |
| Cc1nc(N2CC3CC3C2)ccc1Cn1cc(C(=O)NCc2cc(Cl)ccc2-n2cnnn2)c2cccnc21 (stereo not shown) [Example 50] | 8.05 |
| Cc1nc(N2CC3(CC3)C2)ccc1Cn1cc(C(=O)NCc2c(F)cccc2-n2cnnn2)cn1 [Example 94, 1-[(6-{5-azaspiro[2.3]hexan-5-yl}-2-methylpyridin-3-yl)methyl]-N-{[2-fluoro-6-(1H-1,2,3,4-tetrazol-1-yl)phenyl]methyl}-1H-pyrazole-4-carboxamide] | 8.40 |
| Cc1nc(N2CC3(CCOCC3)C2)ccc1Cn1cc(C(=O)NCc2cc(Cl)ccc2-n2cnnn2)cn1 [Example 78, N-{[5-chloro-2-(1H-1,2,3,4-tetrazol-1-yl)phenyl]methyl}-1-[(2-methyl-6-{7-oxa-2-azaspiro[3.5]nonan-2-yl}pyridin-3-yl)methyl]-1H-pyrazole-4-carboxamide] | 7.72 |
| Cc1nc(N2CC3CC3C2)ccc1Cn1cc(C(=O)NCc2c(-n3cnnn3)ccc(Cl)c2F)c(-c2cnn(C)c2)n1 (stereo not shown) [Example 43] | 9.40 |
| Cc1nc(N2CC3CC(C2)O3)ccc1Cn1cc(C(=O)NCc2cc(Cl)ccc2-n2cnnn2)cn1 [Example 65, N-{[5-chloro-2-(1H-1,2,3,4-tetrazol-1-yl)phenyl]methyl}-1-[(2-methyl-6-{6-oxa-3-azabicyclo[3.1.1]heptan-3-yl}pyridin-3-yl)methyl]-1H-pyrazole-4-carboxamide] | 8.00 |

Next, values leading:

| pIC50 | Structure (SMILES) |
| --- | --- |
| 8.30 | Cc1nc(N2CC3(CCCO3)C2)ccc1Cn1cc(C(=O)NCc2cc(Cl)ccc2-n2cnnn2)cn1 [Example 69, N-{[5-chloro-2-(1H-1,2,3,4-tetrazol-1-yl)phenyl]methyl}-1-[(2-methyl-6-{5-oxa-2-azaspiro[3.4]octan-2-yl}pyridin-3-yl)methyl]-1H-pyrazole-4-carboxamide] |
| 8.22 | Cc1nc(N2C[C@@H]3[C@@H](O)[C@@H]3C2)ccc1Cn1cc(C(=O)NCc2cc(Cl)ccc2-n2cnnn2)cn1 [Example 56] |
| 7.13 | Cc1nc(N2CCCC3(CC3)C2)ccc1Cn1cc(C(=O)NCc2cc(Cl)ccc2-n2cnnn2)cn1 [Example 72, 1-[(6-{5-azaspiro[2.5]octan-5-yl}-2-methylpyridin-3-yl)methyl]-N-{[5-chloro-2-(1H-1,2,3,4-tetrazol-1-yl)phenyl]methyl}-1H-pyrazole-4-carboxamide] |
| 8.05 | Cc1nc(N2CC3CCCC3C2)ccc1Cn1cc(C(=O)NCc2cc(Cl)ccc2-n2cnnn2)cn1 (stereo not shown) [Example 73, N-{[5-chloro-2-(1H-1,2,3,4-tetrazol-1-yl)phenyl]methyl}-1-[(2-methyl-6-{octahydrocyclopenta[c]pyrrol-2-yl}pyridin-3-yl)methyl]-1H-pyrazole-4-carboxamide] |
| 8.15 | Cc1nc(N2CCC3CC32)ccc1Cn1cc(C(=O)NCc2cc(Cl)ccc2-n2cnnn2)cn1 (stereo not shown) [Example 82, 1-[(6-{2-azabicyclo[3.1.0]hexan-2-yl}-2-methylpyridin-3-yl)methyl]-N-{[5-chloro-2-(1H-1,2,3,4-tetrazol-1-yl)phenyl]methyl}-1H-pyrazole-4-carboxamide] |
| 8.52 | COC[C@H]1[C@H]2CN(c3ccc(Cn4cc(C(=O)NCc5cc(Cl)ccc5-n5cnnn5)cn4)c(C)n3)C[C@@H]12 [Example 55] |
| 8.52 | Cc1nc(N2C[C@@H]3CNC(=O)[C@@H]3C2)ccc1Cn1cc(C(=O)NCc2cc(Cl)ccc2-n2cnnn2)cn1 [Example 62, 1-({6-[(3aS,6aS)-4-oxo-octahydropyrrolo[3,4-c]pyrrol-2-yl]-2-methylpyridin-3-yl}methyl)-N-{[5-chloro-2-(1H-1,2,3,4-tetrazol-1-yl)phenyl]methyl}-1H-pyrazole-4-carboxamide] |
| 5.96 | Cc1nc(N2CC3(CN(C)C3)C2)ccc1Cn1cc(C(=O)NCc2cc(Cl)ccc2-n2cnnn2)cn1 [Example 83, N-{[5-chloro-2-(1H-1,2,3,4-tetrazol-1-yl)phenyl]methyl}-1-[(2-methyl-6-{6-methyl-2,6-diazaspiro[3.3]heptan-2-yl}pyridin-3-yl)methyl]-1H-pyrazole-4-carboxamide] |
| 8.00 | Cc1nc(N2CC3CC2C3)ccc1Cn1cc(C(=O)NCc2cc(Cl)ccc2-n2cnnn2)cn1 [Example 67, 1-[(6-{2-azabicyclo[2.1.1]hexan-2-yl}-2-methylpyridin-3-yl)methyl]-N-{[5-chloro-2-(1H-1,2,3,4-tetrazol-1-yl)phenyl]methyl}-1H-pyrazole-4-carboxamide] |
| 7.66 | CO[C@H]1[C@@H]2CC[C@H]1CN(c1ccc(Cn3cc(C(=O)NCc4cc(Cl)ccc4-n4cnnn4)cn3)c(C)n1)C2 [Example 80] |
| 5.97 | Cc1nc(N2CC3(C2)CN(C(C)C)C3)ccc1Cn1cc(C(=O)NCc2cc(Cl)ccc2-n2cnnn2)cn1 [Example 79, N-{[5-chloro-2-(1H-1,2,3,4-tetrazol-1-yl)phenyl]methyl}-1-({2-methyl-6-[6-(propan-2-yl)-2,6-diazaspiro[3.3]heptan-2-yl]pyridin-3-yl}methyl)-1H-pyrazole-4-carboxamide] |
| 8.15 | Cc1nc(N2C[C@@H]3[C@@H](C)[C@@H]3C2)ccc1Cn1cc(C(=O)NCc2cc(Cl)ccc2-n2cnnn2)cn1 [Example 86] |
| 8.52 | Cc1nc(N2CCC3CC3C2)ccc1Cn1cc(C(=O)NCc2cc(Cl)ccc2-n2cnnn2)cn1 (stereo not shown) [Example 85, 1-[(6-{3-azabicyclo[4.1.0]heptan-3-yl}-2-methylpyridin-3-yl)methyl]-N-{[5-chloro-2-(1H-1,2,3,4-tetrazol-1-yl)phenyl]methyl}-1H-pyrazole-4-carboxamide] |

From patent publication US12091399B2, “Phenyltetrazole derivatives as plasma kallikrein inhibitors” (Boehringer Ingelheim International GmbH, priority 2018, dated 2024)
